Experimental data reported in patent publication US20080233102A1, “Drug Therapy for Celiac Sprue” (priority 2002, published 2008).
Where two headings read alike, the source gives them in different places.

Experiments:
[1] = target: T1, Tissue transglutaminase (tTG) (Homo sapiens, UniProt P21980); assay: Inhibition of tTG (residual activity, glutamate dehydrogenase coupled assay); assay type: biochemical
T1 sequence (P21980 1-687): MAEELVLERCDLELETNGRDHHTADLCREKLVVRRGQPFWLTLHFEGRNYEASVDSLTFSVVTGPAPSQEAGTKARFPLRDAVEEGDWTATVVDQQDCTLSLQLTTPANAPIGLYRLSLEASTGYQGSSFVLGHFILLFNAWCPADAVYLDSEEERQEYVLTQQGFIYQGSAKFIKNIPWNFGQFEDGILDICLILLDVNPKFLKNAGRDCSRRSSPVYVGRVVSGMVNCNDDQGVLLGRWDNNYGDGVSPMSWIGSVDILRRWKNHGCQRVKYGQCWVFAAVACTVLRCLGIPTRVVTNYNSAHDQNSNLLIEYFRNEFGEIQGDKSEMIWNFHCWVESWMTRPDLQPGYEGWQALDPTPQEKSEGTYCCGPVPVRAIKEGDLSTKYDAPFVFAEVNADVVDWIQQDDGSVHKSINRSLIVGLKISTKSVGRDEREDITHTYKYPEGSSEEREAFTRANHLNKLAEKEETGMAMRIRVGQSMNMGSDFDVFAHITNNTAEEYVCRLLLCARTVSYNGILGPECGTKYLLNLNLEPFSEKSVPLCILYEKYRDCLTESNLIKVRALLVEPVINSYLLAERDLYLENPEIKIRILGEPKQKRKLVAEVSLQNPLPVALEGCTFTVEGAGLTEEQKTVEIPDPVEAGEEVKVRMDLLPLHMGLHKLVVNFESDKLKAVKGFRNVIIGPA
Protocol: Inhibition of tTG. tTG (9 μM) was inactivated in 200 mM MOPS, pH=7.1, 5 mM CaCl2, 1 mM ETDA at 30° C. containing 0-600 μM Pro-Gln-Pro-Aci-Leu-Pro-Tyr. Every 20 minutes a 40 μl aliquot was removed and residual tTG activity was assayed in 0.5 ml reaction containing 200 mM MOPS, pH=7.1, 5 mM CaCl2, 1 mM ETDA, 10 mM α-ketoglutarate, 180 U/ml glutamate dehydrogenase (Biozyme laboratories) at 30° C. for 20 minutes by measuring the decrease of absorption at 340 nm. Residual activity was corrected by the corresponding uninhibited tTG reaction (0 μM inhibitor) and fitted to an exponential decay. Kinetic parameters were obtained by double-reciprocal plotting of the apparent second-order inactivation constant or, for isatin analogs, by fitting the data for reversible inhibitors to a standard Michaelis Menten equation with a competitive inhibition constant.

[2] = system: bovine epidermal transglutaminase; settings: Castelhano et al., Bioorg. Chem. (1988) 16, 335-340; cited from earlier work
[3] = target: T2, recombinant human tissue transglutaminase (Homo sapiens, UniProt P21980); assay: tTGase assay with recombinant human tissue transglutaminase; assay type: biochemical; settings: dihydroisoxazole inhibitors of human tTGase; for Inhibition Rate Constants (kinh): irreversible inactivation; for Ki: competitive with Cbz-Gln-Gly substrate, read-out: Dissociation Constants (Kl)
T2 construct: made in house
T2 sequence (P21980 1-687): T1 sequence (P21980 1-687)

[4] = dihydroisoxazoles, 200 mM MOPS, pH=7.1, 30° C., read-out: KI
[5] = isatin derivatives, reversible, competitive inhibition constant, read-out: Kl

Inhibition Rate Constants (kinh) [3]	kinh/Kl [3]	Ki [3]	SMILES	other results
			Cc1ccc(C)c(NC(=O)NCC2CC(Br)=NO2)c1 (stereo not drawn) [1-(3-Bromo-4,5-dihydro-isoxazol-5-ylmethyl)-3-(2,5-dimethyl-phenyl)-urea]	Ki [1, 4]: 960 µM
			O=C(NCC1CC(Br)=NO1)Nc1cc(C(F)(F)F)ccc1Cl (stereo not drawn) [1-(3-Bromo-4,5-dihydro-isoxazol-5-ylmethyl)-3-(2-chloro-5-trifluoromethyl-phenyl)-urea]	Ki [1, 4]: 910 µM
			O=C(NCC1CC(Br)=NO1)Nc1ccc(Cl)cc1C(F)(F)F (stereo not drawn) [1-(3-Bromo-4,5-dihydro-isoxazol-5-ylmethyl)-3-(4-chloro-2-trifluoromethyl-phenyl)-urea]	Ki [1, 4]: 1300 µM
			O=C(NCC1CC(Br)=NO1)Nc1ccc(F)cc1 (stereo not drawn) [1-(3-Bromo-4,5-dihydro-isoxazol-5-ylmethyl)-3-(4-fluoro-phenyl)-urea]	Ki [1, 4]: 1300 µM
			O=C(NCC1CC(Br)=NO1)Nc1ccccc1 (stereo not drawn) [1-(3-Bromo-4,5-dihydro-isoxazol-5-ylmethyl)-3-phenyl-urea]	Ki [1, 4]: 1100 µM
1.3 min⁻¹			O=C(N[C@@H](Cc1ccccc1)C(=O)NCC1CC(Br)=NO1)OCc1ccccc1 (stereo partly drawn) [1a, {(S)-1-[(3-Bromo-4,5-dihydro-isoxazol-5-ylmethyl)-carbamoyl]-2-phenyl-ethyl}-carbamic acid benzyl ester]	Inhibition of bovine epidermal transglutaminase [2]: inhibitor
0.42 min⁻¹	980 min^−1M^−1	430 µM	O=C(N[C@@H](Cc1ccc(F)cc1)C(=O)NCC1CC(Br)=NO1)OCc1ccccc1 (stereo partly drawn) [1c, {(S)-1-[(3-Bromo-4,5-dihydro-isoxazol-5-ylmethyl)-carbamoyl]-2-(4-fluoro-phenyl)-ethyl}-carbamic acid benzyl ester]	
0.84 min⁻¹	2200 min^−1M^−1	390 µM	O=C(N[C@@H](Cc1cccc(F)c1)C(=O)NCC1CC(Br)=NO1)OCc1ccccc1 (stereo partly drawn) [1d, {(S)-1-[(3-Bromo-4,5-dihydro-isoxazol-5-ylmethyl)-carbamoyl]-2-(3-fluoro-phenyl)-ethyl}-carbamic acid benzyl ester]	
0.78 min⁻¹	2500 min^−1M^−1	310 µM	O=C(N[C@@H](Cc1c[nH]c2ccccc12)C(=O)NCC1CC(Br)=NO1)OCc1ccccc1 (stereo partly drawn) [1e, {(S)-1-[(3-Bromo-4,5-dihydro-isoxazol-5-ylmethyl)-carbamoyl]-2-(1H-indol-3-yl)-ethyl}carbamic acid benzyl ester]	
0.31 min⁻¹	2800 min^−1M^−1	110 µM	O=C(N[C@@H](Cc1c[nH]c2ccc(O)cc12)C(=O)NCC1CC(Br)=NO1)OCc1ccccc1 (stereo partly drawn) [1f, {(S)-1-[(3-Bromo-4,5-dihydro-isoxazol-5-ylmethyl)-carbamoyl]-2-(5-hydroxy-1H-indol-3-yl)-ethyl}-carbamic acid benzyl ester]	
0.54 min⁻¹	2300 min^−1M^−1		O=C(C[C@H](NC(=O)OCc1ccccc1)C(=O)NCC1CC(Br)=NO1)NCc1ccccc1 (stereo partly drawn) [1g, {(S)-2-Benzylcarbamoyl-1-[(3-bromo-4,5-dihydro-isoxazol-5-ylmethyl)-carbamoyl]-ethyl}-carbamic acid benzyl ester]	
0.29 min⁻¹			O=C(N[C@H](Cc1ccccc1)C(=O)NCC1CC(Br)=NO1)OCc1ccccc1 (stereo partly drawn) [1h, {(R)-1-[(3-Bromo-4,5-dihydro-isoxazol-5-ylmethyl)-carbamoyl]-2-phenyl-ethyl}-carbamic acid benzyl ester]	
0.41 min⁻¹	450 min^−1M^−1		C[C@H](NC(=O)OCc1ccccc1)C(=O)NCC1CC(Br)=NO1 (stereo partly drawn) [1i, {(S)-1-[(3-Bromo-4,5-dihydro-isoxazol-5-ylmethyl)-carbamoyl]-ethyl}-carbamic acid benzyl ester]	
0.32 min⁻¹	230 min^−1M^−1		O=C(N[C@@H](Cc1ccccc1)C(=O)OCC1CC(Br)=NO1)OCc1ccccc1 (stereo partly drawn) [2a, (S)-2-Benzyloxycarbonylamino-3-phenyl-propionic acid 3-bromo-4,5-dihydro-isoxazol-5-ylmethyl ester]	
0.19 min⁻¹	730 min^−1M^−1		CN(CC1CC(Br)=NO1)C(=O)[C@H](Cc1ccccc1)NC(=O)OCc1ccccc1 (stereo partly drawn) [2b, {(S)-1-[(3-Bromo-4,5-dihydro-isoxazol-5-ylmethyl)-methyl-carbamoyl]-2-phenyl-ethyl}-carbamic acid benzyl ester]	
0.60 min⁻¹	220 min^−1M^−1		CC(=O)N[C@@H](Cc1ccccc1)C(=O)NCC1CC(Br)=NO1 (stereo partly drawn) [3a, (S)-2-Acetylamino-N-(3-bromo-4,5-dihydro-isoxazol-5-ylmethyl)-3-phenyl-propionamide]	
0.12 min⁻¹	1500 min^−1M^−1	81 µM	O=C(N[C@@H](Cc1ccc(O)cc1)C(=O)NCC1CC(Br)=NO1)OCc1ccncc1 (stereo partly drawn) [3b, {(S)-1-[(3-Bromo-4,5-dihydro-isoxazol-5-ylmethyl)-carbamoyl]-2-(4-hydroxy-phenyl)-ethyl}-carbamic acid pyridin-4-ylmethyl ester]	
0.21 min⁻¹	2700 min^−1M^−1	78 µM	O=C(N[C@@H](Cc1ccc(O)cc1)C(=O)NCC1CC(Br)=NO1)OCc1cccnc1 (stereo partly drawn) [3c, {(S)-1-[(3-Bromo-4,5-dihydro-isoxazol-5-ylmethyl)-carbamoyl]-2-(4-hydroxy-phenyl)-ethyl}-carbamic acid pyridin-3-ylmethyl ester]	
0.093 min⁻¹	1500 min^−1M^−1	61 µM	O=C(N[C@@H](Cc1ccc(O)cc1)C(=O)NCC1CC(Br)=NO1)OCCc1ccccc1 (stereo partly drawn) [3d, {(S)-1-[(3-Bromo-4,5-dihydro-isoxazol-5-ylmethyl)-carbamoyl]-2-(4-hydroxy-phenyl)-ethyl}-carbamic acid phenethyl ester]	
0.070 min⁻¹	1600 min^−1M^−1	43 µM	O=C(N[C@@H](Cc1ccc(O)cc1)C(=O)NCC1CC(Br)=NO1)OCc1ccc2ccccc2c1 (stereo partly drawn) [3e, {(S)-1-[(3-Bromo-4,5-dihydro-isoxazol-5-ylmethyl)-carbamoyl]-2-(4-hydroxy-phenyl)-ethyl}-carbamic acid naphthalen-2-ylmethyl ester]	
0.38 min⁻¹	4400 min^−1M^−1	87 µM	O=C(N[C@@H](Cc1ccc(O)cc1)C(=O)NCC1CC(Br)=NO1)OCC1=Cc2ccccc2S1(=O)=O (stereo partly drawn) [3f, {(S)-1-[(3-Bromo-4,5-dihydro-isoxazol-5-ylmethyl)-carbamoyl]-2-(4-hydroxy-phenyl)-ethyl}-carbamic acid 1,1-dioxo-1H-1λ6-benzo[b]thiophen-2-ylmethyl ester]	
			O=C1Nc2c(cccc2-c2ccccc2)C1=O [R1 = R2 = H; R3 = Ph]	Ki [1, 5]: 400 µM
			O=C1Nc2ccccc2C1=O [R1 = R2 = R3 = H]	Ki [1, 5]: 860 µM
			O=C1Nc2cc(-c3ccccc3)ccc2C1=O [R1 = R3 = H; R2 = Ph]	Ki [1, 5]: 350 µM
			O=C1Nc2ccc([N+](=O)[O-])cc2C1=O [R2 = R3 = H, R1 = NO2]	Ki [1, 5]: 48 µM
			O=C1Nc2ccc(F)cc2C1=O [R2 = R3 = H; R1 = F]	Ki [1, 5]: 18 µM
			O=C1Nc2ccc(I)cc2C1=O [R2 = R3 = H; R1 = I]	Ki [1, 5]: 22 µM
0.54 min⁻¹	6800 min^−1M^−1	79 µM	O=C(N[C@@H](Cc1c[nH]c2ccc(O)cc12)C(=O)NCC1CC(Br)=NO1)OCC1=Cc2ccccc2S1(=O)=O (stereo partly drawn) [compound 4, {(S)-1-[(3-Bromo-4,5-dihydro-isoxazol-5-ylmethyl)-carbamoyl]-2-(5-hydroxy-1H-indol-3-yl)-ethyl}-carbamic acid 1,1-dioxo-1H-1λ6-benzo[b]thiophen-2-ylmethyl ester]	

SMILES	Inhibition Rate Constants (kinh) [3]	kinh/Kl [3]	Ki [3]	other results
O=C(N[C@@H](Cc1ccc(O)cc1)C(=O)NCC1CC(Br)=NO1)OCc1ccccc1 (stereo partly drawn) [1b]	0.86 min⁻¹	2000 min^−1M^−1	420 µM	
